Laboratory results reported in publication PMC6900522 (Proceedings of the National Academy of Sciences of the …, 2019).
Values belong to the molecule of their own block, whether it stands above or below them.

Experiments:
GUN1-PS = biological target: T1, GUN1-PS (Arabidopsis thaliana, UniProt Q9SIC9); assay: differential absorption spectrophotometry; assay type: binding
T1 sequence (Q9SIC9 232-918): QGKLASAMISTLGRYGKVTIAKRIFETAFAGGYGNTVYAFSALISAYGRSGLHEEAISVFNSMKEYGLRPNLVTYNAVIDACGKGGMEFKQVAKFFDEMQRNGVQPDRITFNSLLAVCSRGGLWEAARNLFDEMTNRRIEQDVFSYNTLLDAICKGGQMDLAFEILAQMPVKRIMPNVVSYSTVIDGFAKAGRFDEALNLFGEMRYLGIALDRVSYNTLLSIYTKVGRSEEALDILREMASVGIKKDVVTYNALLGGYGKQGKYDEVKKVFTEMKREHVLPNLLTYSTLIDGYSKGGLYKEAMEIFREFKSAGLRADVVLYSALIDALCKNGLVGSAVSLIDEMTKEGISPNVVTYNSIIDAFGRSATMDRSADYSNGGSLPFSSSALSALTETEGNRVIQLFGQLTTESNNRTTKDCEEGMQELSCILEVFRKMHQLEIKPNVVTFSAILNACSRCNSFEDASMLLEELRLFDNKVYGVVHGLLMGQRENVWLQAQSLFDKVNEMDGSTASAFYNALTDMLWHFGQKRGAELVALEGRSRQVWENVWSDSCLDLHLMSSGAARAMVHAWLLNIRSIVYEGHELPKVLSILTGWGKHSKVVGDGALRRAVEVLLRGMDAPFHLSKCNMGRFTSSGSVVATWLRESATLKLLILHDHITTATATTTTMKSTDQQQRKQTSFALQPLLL

purified protein = substrate: C=CC1=C(C)c2cc3[nH]c(cc4nc(cc5[nH]c(cc1n2)c(C)c5CCC(=O)O)C(CCC(=O)O)=C4C)c(C)c3C=C; assay: purified protein; conditions: Zn chelation; without GUN1-PS

Kd (GUN1-PS): 4.42 ± 0.56 µM
Molecule: C=CC1=C(C)c2cc3[nH]c(cc4nc(cc5[nH]c(cc1n2)c(C)c5CCC(=O)O)C(CCC(=O)O)=C4C)c(C)c3C=C [Proto IX]

Kd (GUN1-PS): 6.08 ± 1.11 µM
Molecule: C=CC1=C(C)C2=Cc3c(C=C)c(C)c4[n]3[Fe]([Cl])[n]3c(c(C)c(CCC(=O)O)c3=CC3=NC(=C4)C(C)=C3CCC(=O)O)=CC1=N2 [hemin]

B1: FC1 (Arabidopsis thaliana) (protein)
chain: CDIKERSFGESMTITNRGLSFKTNVFEQARSVTGDCSYDETSAKARSHVVAEDKIGVLLLNLGGPETLNDVQPFLYNLFADPDIIRLPRPFQFLQGTIAKFISVVRAPKSKEGYAAIGGGSPLRKITDEQADAIKMSLQAKNIAANVYVGMRYWYPFTEEAVQQIKKDKITRLVVLPLYPQYSISTTGSSIRVLQDLFRKDPYLAGVPVAIIKSWYQRRGYVNSMADLIEKELQTFSDPKEVMIFFSAHGVPVSYVENAGDPYQKQMEECIDLIMEELKARGVLNDHKLAYQSRVGPVQWLKPYTDEVLVDLGKSGVKSLLAVPVSFVSEHIETLEEIDMEYRELALESGVENWGRVPALGLTPSFITDLADAVIESLPSAEAMSNPNAVVDSEDSESSDAFSYIVKMFFGSILAFVLLLSPKMFHAFRNL
Km (purified protein): 26.5 µM
